Experimental data reported in PMC12239106, “Discovery of conformation constrained tetracyclic compounds as potent chitinase OfChi-h inhibitors with a novel binding mode” (Journal of Enzyme Inhibition and Medicinal Chemistry, 2025).
Where two headings read alike, the source gives them in different places.

Columns and labels:
SmChiA = target: T1, SmChiA (Serratia marcescens, UniProt P07254); experiment: Chitinase inhibition assay and Ki determination (MU-β-(GlcNAc)2 substrate, Dixon plot), SmChiA; format: biochemical; conditions: for Ki: Dixon plot, three substrate concentrations; for inhibition at 10 µM: 10 μM inhibitor, 10 nM enzyme, 4 μM MU-β-(GlcNAc)2, pH 6.0, 30 °C, 20 min
T1 construct: made in house; host or cells: Escherichia coli BL21(DE3)
T1 sequence (P07254 24-563): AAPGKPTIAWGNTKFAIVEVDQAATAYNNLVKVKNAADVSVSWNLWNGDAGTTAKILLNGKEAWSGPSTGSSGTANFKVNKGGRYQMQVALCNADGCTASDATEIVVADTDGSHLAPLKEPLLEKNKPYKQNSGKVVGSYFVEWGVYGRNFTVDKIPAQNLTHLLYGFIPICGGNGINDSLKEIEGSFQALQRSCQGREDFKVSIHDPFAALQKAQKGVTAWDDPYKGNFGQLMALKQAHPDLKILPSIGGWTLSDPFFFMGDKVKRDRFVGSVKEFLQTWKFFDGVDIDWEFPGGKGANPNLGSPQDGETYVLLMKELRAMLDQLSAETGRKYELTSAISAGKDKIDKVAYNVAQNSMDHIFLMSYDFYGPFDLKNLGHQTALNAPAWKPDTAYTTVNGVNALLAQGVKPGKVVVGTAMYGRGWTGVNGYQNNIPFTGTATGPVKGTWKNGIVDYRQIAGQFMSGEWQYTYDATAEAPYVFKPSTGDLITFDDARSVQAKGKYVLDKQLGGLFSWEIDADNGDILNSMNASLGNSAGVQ
Description: (§1) SmChiA was expressed in Escherichia coli BL21(DE3), HsChit1 and OfChi-h were overexpressed in Pichia pastoris GS115. The Escherichia coli BL21(DE3) strain was purchased from TaKaRa Biotech (Dalian, […]) while the Pichia pastoris GS115 strain was obtained from Invitrogen (Thermo Fisher Scientific, CA, USA), both of which were cultured and handled according to the protocols provided by suppliers. All chitinases were purified using immobilised metal ion affinity chromatography as previously described. Briefly, solid ammonium sulphate was slowly added to the culture supernatant to achieve 75% saturation. After incubation at 4 °C for 24 h, the precipitated proteins were collected by centrifugation at 12,000 × g for 30 min at 4 °C. The pellet was resuspended thoroughly in buffer A (20 mM sodium phosphate, 0.5 M sodium chloride, pH 7.4), and the solution was centrifuged again at 12,000 × g for 15 min at 4 °C to remove insoluble material. The clarified supernatant was loaded onto a 5 ml HisTrap™ Crude affinity column (GE Healthcare) that had been pre-equilibrated with buffer A. The column was subsequently washed with buffer A containing 75 mM imidazole to remove non-specifically bound proteins. Recombinant chitinases were eluted using buffer A containing 250 mM imidazole. The expressed proteins were quantified using a BCA protein assay kit (TaKaRa Biotech, China). And their purities were determined by SDS-PAGE and found to be >95% in all cases.
(§2) Chitinase activities for SmChiA, HsChit1 and OfChi-h were determined using 4-methylumbelliferyl-N, N′-diacetyl-β-D-chitobioside (MU-β-(GlcNAc)2) (purchased from Sigma) as a substrate. The final reaction mixture volume used for inhibitor screening was 100 μL, consisting of 10 nM enzyme, 4 μM MU-β-(GlcNAc)2, 10 μM inhibitor, and 2% DMSO in a 20 mM sodium phosphate buffer (pH 6.0). The reaction in the absence of inhibitor was used as a positive control. After incubation at 30 °C for 20 min, 0.5 M sodium carbonate was added to the reaction mixture, and the fluorescence produced by the released 4-MU was quantified with a Varioskan Flash microplate reader (Thermo Fisher Scientific) using excitation and emission wavelengths of 360 and 450 nm, respectively. Experiments were performed in triplicate unless specified otherwise. For Ki value determination, the inhibitor concentration was varied in the above reaction, and different concentrations of substrate (2–8 μM) were used. The amount of released 4-MU was quantified as above, and the Ki value and the mode of inhibition were determined using the Dixon plot.

OfChi-h [1] = target: T2, OfChi-h (Ostrinia furnacalis, UniProt Q4AE59); conditions: read-out: OfChi-h Ki; cited from earlier work
T2 construct: made in house; host or cells: Pichia pastoris GS115
T2 sequence (Q4AE59 18-553): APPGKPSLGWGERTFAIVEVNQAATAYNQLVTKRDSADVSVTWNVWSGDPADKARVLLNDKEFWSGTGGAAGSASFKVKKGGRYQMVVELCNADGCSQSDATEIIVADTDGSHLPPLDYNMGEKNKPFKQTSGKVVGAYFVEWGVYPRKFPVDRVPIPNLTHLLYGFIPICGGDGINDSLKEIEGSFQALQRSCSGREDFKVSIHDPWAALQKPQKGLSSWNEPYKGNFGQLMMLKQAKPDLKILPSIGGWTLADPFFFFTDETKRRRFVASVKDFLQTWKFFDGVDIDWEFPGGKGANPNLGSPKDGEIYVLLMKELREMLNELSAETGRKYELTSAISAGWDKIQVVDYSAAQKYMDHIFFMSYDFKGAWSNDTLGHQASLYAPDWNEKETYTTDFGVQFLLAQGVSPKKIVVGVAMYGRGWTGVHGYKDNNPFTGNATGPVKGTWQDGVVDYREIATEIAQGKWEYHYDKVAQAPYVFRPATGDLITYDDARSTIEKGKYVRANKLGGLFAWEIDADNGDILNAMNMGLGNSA

OfChi-h [2] = target: T2, OfChi-h; experiment: Chitinase inhibition assay and Ki determination (MU-β-(GlcNAc)2 substrate, Dixon plot), OfChi-h; format: biochemical; conditions: for inhibition at 10 µM: 10 μM inhibitor, 10 nM enzyme, 4 μM MU-β-(GlcNAc)2, pH 6.0, 30 °C, 20 min; for Ki: Dixon plot, substrate 2–8 μM
Description: as §1, §2

HsChit1 = target: T3, HsChit1 (Homo sapiens, UniProt Q13231); experiment: Chitinase inhibition assay and Ki determination (MU-β-(GlcNAc)2 substrate, Dixon plot), HsChit1; format: biochemical; conditions: three substrate concentrations
T3 construct: made in house; host or cells: Pichia pastoris GS115
T3 sequence (Q13231 22-466): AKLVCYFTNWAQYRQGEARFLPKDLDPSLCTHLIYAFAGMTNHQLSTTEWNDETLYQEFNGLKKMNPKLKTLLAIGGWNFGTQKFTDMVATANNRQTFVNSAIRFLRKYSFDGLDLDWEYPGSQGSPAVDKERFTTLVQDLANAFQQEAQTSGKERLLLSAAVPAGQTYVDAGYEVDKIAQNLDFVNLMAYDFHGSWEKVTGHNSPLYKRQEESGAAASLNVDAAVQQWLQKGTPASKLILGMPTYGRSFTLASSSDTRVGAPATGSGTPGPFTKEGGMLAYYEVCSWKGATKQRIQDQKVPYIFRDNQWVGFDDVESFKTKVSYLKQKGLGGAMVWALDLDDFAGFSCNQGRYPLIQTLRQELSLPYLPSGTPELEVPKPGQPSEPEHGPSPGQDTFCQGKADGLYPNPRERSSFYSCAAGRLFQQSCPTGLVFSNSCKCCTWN
Description: SmChiA was expressed in Escherichia coli BL21(DE3), HsChit1 and OfChi-h were overexpressed in Pichia pastoris GS115. The Escherichia coli BL21(DE3) strain was purchased from TaKaRa Biotech (Dalian, […]) while the Pichia pastoris GS115 strain was obtained from Invitrogen (Thermo Fisher Scientific, CA, USA), both of which were cultured and handled according to the protocols provided by suppliers. All chitinases were purified using immobilised metal ion affinity chromatography as previously described. Briefly, solid ammonium sulphate was slowly added to the culture supernatant to achieve 75% saturation. After incubation at 4 °C for 24 h, the precipitated proteins were collected by centrifugation at 12,000 × g for 30 min at 4 °C. […] The expressed proteins were quantified using a BCA protein assay kit (TaKaRa Biotech, China). And their purities were determined by SDS-PAGE and found to be >95% in all cases.
Chitinase activities for SmChiA, HsChit1 and OfChi-h were determined using 4-methylumbelliferyl-N, N′-diacetyl-β-D-chitobioside (MU-β-(GlcNAc)2) (purchased from Sigma) as a substrate. […] After incubation at 30 °C for 20 min, 0.5 M sodium carbonate was added to the reaction mixture, and the fluorescence produced by the released 4-MU was quantified with a Varioskan Flash microplate reader (Thermo Fisher Scientific) using excitation and emission wavelengths of 360 and 450 nm, respectively. […]

| SMILES | Ki (SmChiA) [nM] | Ki (OfChi-h [1]) [nM] | inhibition at 10 µM (OfChi-h [2]) [%] | Improvement in inhibitory activity against OfChi-h (Ki) compared to 5a (OfChi-h [2]; 6a Ki versus 5a Ki) | Ki (OfChi-h [2]) [nM] | inhibition at 10 µM (SmChiA) [%] | Ki (HsChit1) [nM] |
| --- | --- | --- | --- | --- | --- | --- | --- |
| Cc1cccn2c(=O)c3cc(C(=O)NCc4cccnc4)c(N)nc3nc12 [5a, reference compound] | 6190 ± 155 | 860 | – | – | – | – | – |
| Cc1cccn2c(=O)c3cc4c(=O)n(Cc5cccnc5)cnc4nc3nc12 [6a] | 126 | – | 99.3 ± 0.2 | approximately 15 fold | 58 | 98.5 ± 0.2 | 295 |
| Cc1cccn2c(=O)c3cc4c(=O)n(C(C)c5cccnc5)cnc4nc3nc12 (stereo not shown) [6b] | – | – | 96.8 ± 0.1 | – | 215 | 88.7 ± 2.2 | – |
| Cc1cccn2c(=O)c3cc4c(=O)n(Cc5cnccn5)cnc4nc3nc12 [6c] | – | – | 95.3 ± 0.5 | – | 294 | 91.5 ± 0.8 | – |
| Cc1cccn2c(=O)c3cc4c(=O)n(Cc5ccccc5)cnc4nc3nc12 [6d] | – | – | 72.5 ± 2.4 | – | 1420 | 32 ± 1.4 | – |
| COc1cc(Cn2cnc3nc4nc5c(C)cccn5c(=O)c4cc3c2=O)cc(OC)c1OC [6e] | – | – | 96.2 ± 0.3 | – | 65 | 28.2 ± 4.8 | – |
| COc1ccc(Cn2cnc3nc4nc5c(C)cccn5c(=O)c4cc3c2=O)cc1OC [6f] | – | – | 69.3 ± 4.4 | – | 747 | 34.2 ± 2.5 | – |
| COc1ccc(Cn2cnc3nc4nc5c(C)cccn5c(=O)c4cc3c2=O)cc1 [6g] | – | – | 74 ± 2 | – | 1030 | 30.3 ± 2.7 | – |
| Cc1cccn2c(=O)c3cc4c(=O)n(Cc5cccc(N)c5)cnc4nc3nc12 [6h] | – | – | 89 ± 1.5 | – | 276 | 37.9 ± 0.4 | – |
| Cc1cccn2c(=O)c3cc4c(=O)n(Cc5ccc(Cl)c(F)c5)cnc4nc3nc12 [6i] | – | – | 42.9 ± 1 | – | 2890 | 31.7 ± 0.2 | – |
| Cc1cccn2c(=O)c3cc4c(=O)n(CCc5c[nH]c6ccccc56)cnc4nc3nc12 [6j] | – | – | 49.6 ± 2.2 | – | – | 42.4 ± 4.1 | – |
| Cc1cccn2c(=O)c3cc4c(=O)n(Cc5ccco5)cnc4nc3nc12 [6k] | – | – | 86.8 ± 0.8 | – | 1510 | 47.5 ± 1.2 | – |
| C#CCn1cnc2nc3nc4c(C)cccn4c(=O)c3cc2c1=O [6l] | – | – | 81 ± 0.8 | – | 1340 | 37.5 ± 2.2 | – |
